Data from publication PMC9266822, “Thermal Shift Assay for Small GTPase Stability Screening: Evaluation and Suitability” (International Journal of Molecular Sciences, 2022).
“Also recorded” adds a separate entry of the source.

Key:
KRAS WT [1] = molecular target: T1, KRAS WT (Homo sapiens, UniProt P01116); experiment: QRET nucleotide exchange assay, SOScat induced; type: biochemical; details: for KRAS binding level / KRAS binding: Fig. 3A legend, SOScat 10 nM; for KRAS binding level / EC50 / KRAS binding: 15 nM KRAS; for EC50: nucleotide titration, SOScat 5 nM (Table S2), 10 nM (Fig. 3 legend)
T1 construct: GG-Hs.KRAS4b (2-188), GG-Hs.KRAS4b (2-188) G12C; His6-MBP (N, cleaved yes); made in house; host or cells: E. coli

KRAS WT [2] = test system: T2, KRAS WT; experiment: Protein-Probe thermal stability assay; type: binding, human; details: for thermal stability effect: 10 µM compound; for thermal stability effect / concentration at which KRAS was stabilized / KRAS stabilizing effect: 1 mM MgCl2; for Thermal Stability (°C): Table S1, additive as headed: EDTA 0.5 mM, MgCl2 1 mM, GDP 10 mM, GTP 10 µM, GTPγS 10 µM, GMP-PNP 300 µM; for Thermal Stability (°C) / KRAS stabilizing effect: GMP-PCP 300 µM, GMP 1 mM
T2 construct: His6-MBP (N, cleaved yes); made in house; host or cells: E. coli
Experimental: (§1) All Protein-Probe assays were performed using a sample volume of 8 µL and a two-step assay protocol. Detection was performed at room temperature (RT) by adding 65 µL Protein-Probe solution: 4 µM HIDC (1,1,3,3,3′,3′-hexamethylindodicarbocyanine iodide) and 1–1.5 nM Eu^3+-labeled peptide probe (NH2-[…]). Assays were performed in a sample buffer containing 10 mM HEPES (pH 7.5), 0.001% Triton X-100 and 20 mM NaCl and the buffer was supplemented with 0–10 mM MgCl2, 0–1 mM CaCl2, or 0–1 mM EDTA, depending on the assay. In all thermal stability assays, samples were preincubated at RT for 10 min (nucleotides) or 30 min (inhibitors) prior to thermal measurements. Depending on the studied protein, thermal ramping was performed up to 95 °C, using 5 °C intervals. At each temperature, samples were incubated for 3 min before the Protein-Probe solution was added, and the TRL-signals at 620 nm were monitored at RT.
(§2) In addition, KRAS WT was monitored in a sample buffer supplemented with 0–10 mM MgCl2 or 0–1 mM CaCl2.
[…] KRAS WT (50 nM) was also monitored with 10 µM GDP in a buffer without MgCl2 or supplemented with 0–1 mM CaCl2 or 1 mM EDTA. HRAS (2 µM), NRAS (2 µM), RhoA (2 µM), and Gαi (50 nM) were monitored with 100 µM GDP, GTP, or ATP in buffers with or without 1 mM MgCl2 and 1 mM EDTA. In addition, melting curves for KRAS WT (50 nM) were measured with GTP analogs GTPγS, GMPPNP, and GMPPCP (0–300 µM), and GMP (0–1000 µM) in the presence of 1 mM MgCl2.
(§3) All inhibitor assays were performed with a buffer containing 1 mM MgCl2. […]

KRAS G12C = test system: T3, KRAS G12C; experiment: Protein-Probe thermal stability assay; type: binding, human; details: for thermal stability effect: 10 µM compound, 1 mM MgCl2
T3 construct: GG-Hs.KRAS4b (2-188) G12C; His6-MBP (N, cleaved yes); made in house; host or cells: E. coli
Experimental: All Protein-Probe assays were performed using a sample volume of 8 µL and a two-step assay protocol. […] Assays were performed in a sample buffer containing 10 mM HEPES (pH 7.5), 0.001% Triton X-100 and 20 mM NaCl and the buffer was supplemented with 0–10 mM MgCl2, 0–1 mM CaCl2, or 0–1 mM EDTA, depending on the assay. In all thermal stability assays, samples were preincubated at RT for 10 min (nucleotides) or 30 min (inhibitors) prior to thermal measurements. […] At each temperature, samples were incubated for 3 min before the Protein-Probe solution was added, and the TRL-signals at 620 nm were monitored at RT. […]
as §3

KRAS G12D = experiment: Protein-Probe thermal stability assay; type: binding, human; details: KRAS G12D 50 nM; 10 µM compound
Experimental: as §1, §2
(§4) KRAS G13D (50 nM) was monitored in the presence of 0–900 nM GDP, and KRAS WT, G13D, G12D, and Q61R (50 nM) were monitored with 10 and/or 100 µM GDP, GTP, and ATP in buffer supplemented with 1 mM MgCl2. KRAS WT (50 nM) was also monitored with 10 µM GDP in a buffer without MgCl2 or supplemented with 0–1 mM CaCl2 or 1 mM EDTA. HRAS (2 µM), NRAS (2 µM), RhoA (2 µM), and Gαi (50 nM) were monitored with 100 µM GDP, GTP, or ATP in buffers with or without 1 mM MgCl2 and 1 mM EDTA. In addition, melting curves for KRAS WT (50 nM) were measured with GTP analogs GTPγS, GMPPNP, and GMPPCP (0–300 µM), and GMP (0–1000 µM) in the presence of 1 mM MgCl2.
All inhibitor assays were performed with a buffer containing 1 mM MgCl2.
(§5) Assays were performed using three DARPins alone or in combination with small molecular inhibitors. […] The thermal curves were monitored after an additional 30 min incubation at RT.

KRAS G13D = test system: T4, KRAS G13D; experiment: Protein-Probe thermal stability assay; type: binding, human; details: for Thermal Stability (°C): Table S1, KRAS G13D 50 nM, EDTA 0.5 mM, MgCl2 1 mM, GDP 10 mM, GTP 10 µM as headed
T4 construct: GG-Hs.KRAS4b (2-188) G13D; His6-MBP (N, cleaved yes); made in house; host or cells: E. coli
Experimental: as §1, §2, §4, §5

KRAS Q61R = test system: T5, KRAS Q61R; experiment: Protein-Probe thermal stability assay; type: binding, human; details: for Thermal Stability (°C): Table S1, KRAS Q61R 50 nM, EDTA 0.5 mM, MgCl2 1 mM, GDP 10 mM, GTP 10 µM as headed
T5 construct: GG-Hs.KRAS4b (2-188) Q61R; His6-MBP (N, cleaved yes); made in house; host or cells: E. coli
Experimental: as §1, §2, §4, §5

RhoA = test system: T6, RhoA; experiment: Protein-Probe thermal stability assay; type: binding; details: Table S1; RhoA 1 µM; additive concentrations not given (100 µM GDP/GTP)
T6 construct: and RhoA (1-182) were gen-; His6-MBP (N, cleaved yes); made in house; host or cells: E. coli
Experimental: as §1, §2
as §4, with “HRAS (2 µM), NRAS (2 µM), RhoA (2 µM), and Gαi (50 nM) were monitored with 100 µM GDP, GTP, or ATP in buffers with or without 1 mM MgCl2 and 1 mM EDTA.” left out

Gαi = experiment: Protein-Probe thermal stability assay; type: binding; details: 100 µM GDP or GTP
Experimental: as §1, §2, §4

T1 sequence (P01116 2-188 isoform P01116-2): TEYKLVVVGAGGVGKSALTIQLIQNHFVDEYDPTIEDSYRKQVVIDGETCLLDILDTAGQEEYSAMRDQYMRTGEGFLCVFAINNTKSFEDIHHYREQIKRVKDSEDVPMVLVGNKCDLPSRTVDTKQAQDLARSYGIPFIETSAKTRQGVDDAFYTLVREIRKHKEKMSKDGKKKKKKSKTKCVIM

Cn1cnc(Cn2ccc3ccc(CNCc4[nH]c5ccccc5c4[C@H]4NC(=O)c5ccc(O)cc54)cc32)c1 [BI-2852]
IC50 (KRAS WT [1]; 100 nM KRAS WT, 10 nM SOScat, inhibitor preincubated with KRAS): 2800 ± 700 nM | thermal stability effect (KRAS WT [2]; KRAS WT 50 nM): Neither compound altered; also recorded: negligible | thermal stability effect (KRAS G12C; KRAS G12C 50 nM): negligible | thermal stability effect (KRAS G12D): Neither compound altered; also recorded: negligible

Nc1nc2c(ncn2[C@@H]2O[C@H](COP(=O)(O)OP(=O)(O)NP(=O)(O)O)[C@@H](O)[C@H]2O)c(=O)[nH]1 [GMP-PNP, guanosine-5’-[(β,γ)-imido]triphosphate]
KRAS binding level (KRAS WT [1]): micromolar | EC50 (KRAS WT [1]): 71.2 ± 9.3 nM | Tm of nucleotide-preloaded KRAS (KRAS WT [2]; KRAS 50 nM preloaded with the nucleotide, unit not given, in °C (unit assumed)): 53.2 ± 0.3 | concentration at which KRAS was stabilized (KRAS WT [2]; KRAS WT 50 nM): 300000 nM | Thermal Stability (°C) (KRAS WT [2]; KRAS WT 50 nM): 67.1 ± 0.1 °C

Nc1nc2c(ncn2[C@@H]2O[C@H](COP(=O)(O)OP(=O)(O)OP(=O)(O)O)[C@@H](O)[C@H]2O)c(=O)[nH]1 [GTP, guanosine-5’-triphosphate]
KRAS binding (KRAS WT [1]): < 15 nM | EC50 (KRAS WT [1]): 7.9 ± 0.6 nM | concentration at which KRAS was stabilized (KRAS WT [2]; KRAS WT 50 nM): 10000 nM | Thermal Stability (°C) (KRAS WT [2]; KRAS WT 50 nM): 68.2 °C | Thermal Stability (°C) (KRAS G13D): 60.8 °C | Thermal Stability (°C) (KRAS Q61R): 71.7 °C | Thermal Stability (°C) (RhoA): 73.0 °C | max ΔTm (Gαi; with Mg2+): ≤ 1.0 °C | max ΔTm (Gαi; without Mg2+): ≤ 3.3 °C

[Ca+2].[Cl-].[Cl-] [CaCl2]
stability increase compared to 1 mM EDTA (KRAS WT [2]; KRAS WT 50 nM, additive 0.1 mM): 1.2 °C | stability increase compared to 1 mM EDTA (KRAS WT [2]; KRAS WT 50 nM, additive 1 mM): 3.7 °C

Cn1cnc(Cn2ccc3ccc(CNCc4[nH]c5ccccc5c4[C@@H]4NC(=O)c5ccc(O)cc54)cc32)c1 [BI-2853]
effect on KRAS nucleotide exchange activity (KRAS WT [1]; 100 nM KRAS WT, 10 nM SOScat): no effect | thermal stability effect (KRAS WT [2]; KRAS WT 50 nM): Neither compound altered | thermal stability effect (KRAS G12C; KRAS G12C 50 nM): no response | thermal stability effect (KRAS G12D): Neither compound altered

Nc1nc2c(ncn2C2OC(COP(=O)(O)OP(=O)(O)CP(=O)(O)O)C(O)C2O)c(=O)[nH]1 (stereo not drawn) [GMP-PCP, guanosine-5’-[(β,γ)-methyleno]triphosphate]
KRAS binding level (KRAS WT [1]): micromolar | EC50 (KRAS WT [1]): 542 ± 38 nM | KRAS stabilizing effect (KRAS WT [2]; KRAS WT 50 nM): minor effects | Thermal Stability (°C) (KRAS WT [2]; KRAS WT 50 nM): 64.4 °C

Nc1nc2c(ncn2[C@@H]2O[C@H](COP(=O)(O)OP(=O)(O)OP(O)(O)=S)[C@@H](O)[C@H]2O)c(=O)[nH]1 [GTPγS, guanosine-5’-(γ-thio)-triphosphate]
KRAS binding (KRAS WT [1]): < 15 nM | EC50 (KRAS WT [1]): 11.7 ± 0.8 nM | concentration at which KRAS was stabilized (KRAS WT [2]; KRAS WT 50 nM): 10000 nM | Thermal Stability (°C) (KRAS WT [2]; KRAS WT 50 nM): 67.8 ± 0.6 °C

CNCc1ccccc1-c1csc([C@@H](C)Nc2nc(C)nc3cc(OC)c(OC)cc23)c1 [BAY-293]
thermal stability effect (KRAS G12C; KRAS G12C 50 nM): no response

O=C(O)CN(CCN(CC(=O)O)CC(=O)O)CC(=O)O [EDTA]
Tm (KRAS WT [2]; KRAS WT 50 nM, 1 mM EDTA, unit not given, in °C (unit assumed)): 50.8 ± 0.6 | Tm (KRAS WT [2]; KRAS WT 100 nM, additive 1 mM): 48.9 ± 0.4 °C | Thermal Stability (°C) (KRAS WT [2]; KRAS WT 50 nM): 49.0 °C | Thermal Stability (°C) (KRAS G12C; Table S1, KRAS G12C 50 nM, EDTA 0.5 mM, MgCl2 1 mM): 48.2 ± 0.4 °C | Tm (KRAS G13D; KRAS G13D 100 nM, additive 1 mM): 43.6 ± 0.8 °C | Thermal Stability (°C) (KRAS G13D): 47.7 ± 0.5 °C | Tm (KRAS Q61R; KRAS Q61R 100 nM, additive 1 mM): 50.6 ± 1.0 °C | Thermal Stability (°C) (KRAS Q61R): 51.8 ± 0.9 °C | Thermal Stability (°C) (RhoA): 44.7 °C

Nc1nc2c(ncn2[C@@H]2O[C@H](COP(=O)(O)O)[C@@H](O)[C@H]2O)c(=O)[nH]1 [GMP, guanosine-5’-monophosphate]
EC50 (KRAS WT [1]): 101000 ± 8000 nM | KRAS stabilizing effect (KRAS WT [2]; KRAS WT 50 nM): no KRAS stabilizing effect; also recorded: no KRAS stabilization | Thermal Stability (°C) (KRAS WT [2]; KRAS WT 50 nM): 61.3 °C

C=C(F)C(=O)N1CCN(c2nc(OC[C@@H]3CCCN3C)nc3c2CCN(c2cccc4cccc(Cl)c24)C3)C[C@@H]1CC#N [MRTX849]
ΔTm (KRAS G12C; 50 nM KRAS G12C, inhibitor 0–900 nM, thermal stability increase): 15.6 °C
